Laboratory results reported in article PMC12337342 (Proceedings of the National Academy of Sciences of the …, 2025).

Molecular target: T1, AUX1 (Arabidopsis thaliana, UniProt Q96247)
T1 sequence (Q96247 1-485): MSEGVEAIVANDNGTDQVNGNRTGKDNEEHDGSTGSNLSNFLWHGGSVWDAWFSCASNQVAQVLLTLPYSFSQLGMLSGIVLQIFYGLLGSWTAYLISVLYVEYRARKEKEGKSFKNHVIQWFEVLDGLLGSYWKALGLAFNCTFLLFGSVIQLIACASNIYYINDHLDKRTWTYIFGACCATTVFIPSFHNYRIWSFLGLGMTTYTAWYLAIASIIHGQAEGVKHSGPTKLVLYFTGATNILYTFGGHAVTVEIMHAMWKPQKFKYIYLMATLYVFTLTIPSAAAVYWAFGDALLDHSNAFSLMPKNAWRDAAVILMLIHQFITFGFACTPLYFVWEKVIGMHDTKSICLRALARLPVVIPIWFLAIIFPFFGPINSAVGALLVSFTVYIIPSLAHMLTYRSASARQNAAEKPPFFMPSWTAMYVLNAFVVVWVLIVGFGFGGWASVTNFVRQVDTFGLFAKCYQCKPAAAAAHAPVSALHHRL
Assay: inhibition of [3H]IAA uptake in AUX1-expressing HEK293T cells
Format: cell-based
Conditions: about 30 nM [3H]IAA, pH 6.0, 37 °C, 10 min

**Q.** Which “% relative auxin accumulation at 50 μM inhibitor” value does the source give for `O=C(O)COc1cccc2ccccc12` [1-NOA, 1-naphthoxyacetic acid] here?
**A.** reduced the uptake of [^3H]IAA in AUX1-expressing HEK293T cells

**Q.** `O=C(O)COc1ccc2ccccc2c1` [2-NOA, 2-naphthoxyacetic acid] was tested. Which “% relative auxin accumulation at 50 μM inhibitor” value did it give?
**A.** reduced the uptake of [^3H]IAA in AUX1-expressing HEK293T cells

**Q.** With `O=C(O)Cc1ccc(O)c(Cl)c1` [CHPAA, 3-chloro-4-hydroxyphenylacetic acid] as the molecule, how does the “% relative auxin accumulation at 50 μM inhibitor” value read?
**A.** reduced the uptake of [^3H]IAA in AUX1-expressing HEK293T cells
